# “Also recorded” adds a separate entry of the source.
# How the values were obtained:
# Type in all cases: cell-based
# [1] = tested on: human epithelial cell line (MCF-7); test: H2O2-induced apoptosis, trypan-blue staining, MCF-7; conditions: 200 mM H2O2, SERF2 5 μg/ml, 6 hours, serum-free
# Method: (§1) Experiments were performed in 6-well plates containing 5 ml cell culture medium (serum-free) per well and were seeded at a cell density of 1*10^6 cells/well and cultured overnight. On the next day 200 mM H2O2 or 200 mM H2O2 and SERF2 (5 μg/ml) was added to cultures. After 6 hours of incubation, the adherent cells were harvested, washed 3 times in PBS and dead cells were detected by trypan-blue staining using light microscopy. Shown is the percentage of dead cells.
# (§2) Trypan Blue staining is one of the most commonly used methods to determine the cell viability using light microscopy. Trypan blue can only stain cells if their membrane is damaged.
# (§3) The question was asked whether SERF2 has an effect on growth factor deprivation- or stress-induced apoptosis. The experimental protocol included addition of Hydrogen peroxide (H2O2), which is known to cause cellular stress and consequently apoptotic death in doses below 200 μM (Cox A., Carcinogenesis. 2007, Vol. 28, 10). Furthermore apoptosis was induced by deprivation of granulocyte macrophage colony-stimulating factor (GM-CSF) in cultures of TF-1 cells. These cells are dependent on the presence of a growth factor which is absolutely necessary for growth and differentiation of TF-1 cells.
# [2] = tested on: human epithelial cell line (A431); test: H2O2-induced apoptosis, trypan-blue staining, A431; conditions: 200 mM H2O2, SERF2 5 μg/ml, 6 hours, serum-free
# Method: as §1, §2, §3
# [3] = tested on: mouse satellite cells (MuMa23/P13); test: AlamarBlue proliferation assay, primary satellite cells; conditions: 24 hrs, SERF2 20 and 4 μg/ml
# Method: FIG. 4: Effect of SERF2 on Proliferation of mouse satellite cells (MuMa23/P13). Proliferation assay was performed essentially as in FIG. 2. Incubation time was 24 hrs, added SERF2 concentrations were 20 and 4 μg/ml, respectively.
# Muscle tissue was taken from male ICR mice and minced by using scissors and a scalpel. Following incubation in protease solution (Sigma, St. Lois) for 1 h at 37° C., remaining tissue clumps were dissociated by vigorousely pipetting and loaded onto a Percoll (Pharmacia) gradient (75%, 50%, 30%). After centrifugation for 20 min at 1250×g, cells were collected from the 2nd interphase (99% satellite cells), washed and cultured at a cell density of 1×10^5 cells/ml in 6-well plates. See also Danoviz ewt al. Methods Mol Biol. 2012; 798: 21-52.
# Proliferation was measured using the AlamarBlue™ assay according to the manufacturer's protocol. Briefly, 1×10^4 cells were seeded per well containing 100 μl growth medium. Cells were incubated over night at +37° C., 5% v/v CO^2 and humidified atmosphere. Prior performing the assay, viability of cells was checked under the microscope. Usually cells reached 60% confluence. Cells were washed three times with 100 μl DPBS per well. […] Fluorescence (Ex. 570 nm, Em. 585 nm) was measured using a Varioskan Flash multi-plate reader (Thermo Scientific). Data were evaluated using Microsoft Excel and GraphPad Prism V4.
substance,measurement,setting,value
"SERF2: Small EDRK-rich factor 2, mature protein of 59 amino acids (SEQ ID NO: 1) (MTRGNQRELARQKNMKKQSDSVKGKRRDDGLSAAARKQRDSEIMQQKQKKANEKKEEPK; homo sapiens)","protection from H2O2-induced apoptosis (percentage of dead cells), MCF-7",[1],markedly reduced apoptosis; also recorded: protects a human epithelial cell line (MCF-7) from H2O2-induced apoptosis
same,"protection from H2O2-induced apoptosis (percentage of dead cells), A431",[2],markedly reduced apoptosis; also recorded: protects a human epithelial cell line (A431) from H2O2-induced apoptosis
same,proliferative effect on mouse satellite cells,[3],proliferative effect in a dose-dependent manner
